Assay results reported in DBAASP.
≈ marks a conversion by molar mass, not a printed value. Values belong to the compound of their own block, whether it stands above or below them.

Legend:
Assay in all cases: ≥ marks a high value that may be exact or a test limit, other limits are often not marked, values filed in µg/mL are converted to µM
[1] = system: Staphylococcus epidermidis ATCC 12228
Escherichia coli DL7 = system: Escherichia coli DL7
Bacillus subtilis PS832 = system: Bacillus subtilis PS832
[2] = system: Klebsiella aerogenes ATCC 13048
[3] = system: Streptococcus pneumoniae BCRC 10794
[4] = system: Staphylococcus aureus BCRC 10780
[5] = system: Staphylococcus aureus KCTC 1916
[6] = system: Escherichia coli KCTC 2571
[7] = system: Staphylococcus aureus CCARM 3090
[8] = system: Acinetobacter baumannii CCARM 12036
[9] = system: Staphylococcus aureus KCTC 1621
[10] = system: Salmonella typhimurium CCARM 8007
[11] = system: Salmonella typhimurium CCARM 8003
[12] = system: Pseudomonas aeruginosa KCTC 2004
[13] = system: Staphylococcus aureus CCARM 3089
[14] = system: Pseudomonas aeruginosa CCARM 2003
[15] = system: Escherichia coli CCARM 1229
[16] = system: Acinetobacter baumannii CCARM 12037
[17] = system: Bacillus subtilis KCTC 1022
[18] = system: Escherichia coli KCTC 1682
[19] = system: Staphylococcus epidermidis KCTC 1917
[20] = system: Bacillus subtilis KCTC 3068
[21] = system: Bacillus subtilis KCTC 1021
[22] = system: Staphylococcus aureus CCARM 3126
[23] = system: Acinetobacter baumannii CCARM 12035
[24] = system: Pseudomonas aeruginosa CCARM 2095
[25] = system: Staphylococcus aureus KCTC 3881
[26] = system: Pseudomonas aeruginosa CCARM 2163
[27] = system: Pseudomonas aeruginosa CCARM 2002
[28] = system: Pseudomonas aeruginosa KCTC 2513
[29] = system: Staphylococcus aureus CCARM 3114
[30] = system: Acinetobacter baumannii CCARM 12005
[31] = system: Staphylococcus aureus CCARM 3108
[32] = system: Pseudomonas aeruginosa KCTC 1637
[33] = system: Escherichia coli CCARM 1238
[34] = system: Escherichia coli KCTC 2593
[35] = system: Salmonella typhimurium CCARM 8009
[36] = system: Salmonella typhimurium KCTC 1926
[37] = system: Candida albicans FRR 5580
[38] = system: Pseudomonas aeruginosa ATCC 9027
[39] = system: Xanthomonas axonopodis pv. glycines ISBF 327
[40] = system: Staphylococcus aureus ATCC 29313
[41] = system: Escherichia coli ATCC 25922
[42] = system: Pseudomonas aeruginosa ATCC 27853

Structure (SMILES): CC[C@H](C)[C@H](NC(=O)CNC(=O)[C@H](CCCN=C(N)N)NC(=O)[C@H](Cc1ccccc1)NC(=O)[C@@H](NC(=O)[C@H](Cc1cnc[nH]1)NC(=O)[C@H](Cc1cnc[nH]1)NC(=O)[C@H](Cc1ccccc1)NC(=O)[C@H](C)N)[C@@H](C)CC)C(=O)N[C@H](C(=O)N[C@@H](Cc1cnc[nH]1)C(=O)N[C@H](C(=O)NCC(=O)N[C@@H](CCCCN)C(=O)N[C@H](C(=O)N[C@H](C(=O)N[C@@H](Cc1cnc[nH]1)C(=O)N[C@@H](CCCN=C(N)N)C(=O)N[C@@H](CC(C)C)C(=O)N[C@H](C(=O)N[C@H](C(=O)NCC(=O)O)[C@@H](C)O)C(C)C)[C@@H](C)CC)[C@@H](C)O)C(C)C)C(C)C [AFHHIFRGIVHVGKTIHRLVTG]
- MIC [5]: 1 µM (≈ 2.5 µg/mL)
- MIC [6]: 2 µM (≈ 4.99 µg/mL)
- MIC [7]: 8 µM (≈ 20 µg/mL)
- MIC [8]: 2 µM (≈ 4.99 µg/mL)
- MIC [9]: 1 µM (≈ 2.5 µg/mL)
- MIC [10]: 8 µM (≈ 20 µg/mL)
- MIC [11]: 8 µM (≈ 20 µg/mL)
- MIC [12]: 4 µM (≈ 9.98 µg/mL)
- MIC [13]: 8 µM (≈ 20 µg/mL)
- MIC [14]: 2 µM (≈ 4.99 µg/mL)
- MIC [15]: 8 µM (≈ 20 µg/mL)
- MIC [16]: 2 µM (≈ 4.99 µg/mL)
- MIC [17]: 1 µM (≈ 2.5 µg/mL)
- MIC [18]: 2 µM (≈ 4.99 µg/mL)
- MIC [19]: 2 µM (≈ 4.99 µg/mL)
- MIC [20]: 4 µM (≈ 9.98 µg/mL)
- MIC [21]: 4 µM (≈ 9.98 µg/mL)
- MIC [22]: 8 µM (≈ 20 µg/mL)
- MIC [23]: 2 µM (≈ 4.99 µg/mL)
- MIC [24]: 2 µM (≈ 4.99 µg/mL)
- MIC [25]: 2 µM (≈ 4.99 µg/mL)
- MIC [26]: 2 µM (≈ 4.99 µg/mL)
- MIC [27]: 2 µM (≈ 4.99 µg/mL)
- MIC [28]: 8 µM (≈ 20 µg/mL)
- MIC [29]: 8 µM (≈ 20 µg/mL)
- MIC [30]: 2 µM (≈ 4.99 µg/mL)
- MIC [31]: 8 µM (≈ 20 µg/mL)
- MIC [32]: 4 µM (≈ 9.98 µg/mL)
- MIC [33]: 8 µM (≈ 20 µg/mL)
- MIC [34]: 2 µM (≈ 4.99 µg/mL)
- MIC [35]: 8 µM (≈ 20 µg/mL)
- MIC [36]: 8 µM (≈ 20 µg/mL)

Structure (SMILES): CC(C)[C@H](NC(=O)[C@@H]1CCCN1C(=O)[C@@H](N)Cc1ccccc1)C(=O)N[C@H](C(=O)N[C@@H](Cc1c[nH]c2ccccc12)C(=O)N[C@@H](CCCN=C(N)N)C(=O)N[C@@H](Cc1c[nH]c2ccccc12)C(=O)N[C@@H](Cc1c[nH]c2ccccc12)C(=O)N[C@@H](CCCCN)C(=O)N[C@@H](Cc1c[nH]c2ccccc12)C(=O)N[C@@H](Cc1c[nH]c2ccccc12)C(=O)N[C@@H](CCCCN)C(=O)NCC(=O)O)[C@@H](C)O [FPVTWRWWKWWKG]
- MIC [37]: ≥ 134 µM
- MIC [38]: 67.1 µM (≈ 125 µg/mL)

Structure (SMILES): CC[C@H](C)[C@H](NC(=O)CN)C(=O)NCC(=O)N[C@@H](CC(=O)O)C(=O)N[C@H](C(=O)N[C@@H](CC(C)C)C(=O)N[C@@H](CCCCN)C(=O)N[C@@H](CC(N)=O)C(=O)N[C@@H](CC(C)C)C(=O)N[C@@H](C)C(=O)N[C@@H](CCCCN)C(=O)N[C@@H](C)C(=O)N[C@@H](C)C(=O)NCC(=O)N[C@@H](CCCCN)C(=O)N[C@@H](C)C(=O)N[C@@H](C)C(=O)N[C@@H](CC(C)C)C(=O)N[C@@H](Cc1cnc[nH]1)C(=O)N[C@@H](C)C(=O)N[C@H](C(=O)NCC(=O)N[C@@H](CCC(=O)O)C(=O)N[C@@H](CO)C(=O)N[C@@H](CC(C)C)C(N)=O)C(C)C)[C@@H](C)CC [GIGDILKNLAKAAGKAALHAVGESL]
- MIC [39]: 2 µM (≈ 4.83 µg/mL)
- MIC [40]: 19 µM (≈ 45.9 µg/mL)
- MIC [41]: 19 µM (≈ 45.9 µg/mL)
- MIC [42]: 77 µM (≈ 186 µg/mL)

Further lines, results first:

- MIC [1]: 16 µM (≈ 23.6 µg/mL)
- MIC (Escherichia coli DL7): 8 µM (≈ 11.8 µg/mL)
- MIC (Bacillus subtilis PS832): 2 µM (≈ 2.95 µg/mL)
- MIC [2]: ≥ 32 µM
Structure (SMILES): CC[C@H](C)[C@H](NC(=O)[C@H](CCCN=C(N)N)NC(=O)[C@H](CCCCN)NC(=O)[C@H](CC(C)C)NC(=O)[C@H](CC(C)C)NC(=O)CNC(=O)[C@H](Cc1cnc[nH]1)NC(=O)[C@H](C)NC(=O)[C@@H](N)CC(=O)O)C(=O)N[C@@H](CCCCN)C(=O)N[C@H](C(=O)N[C@@H](CC(C)C)C(=O)N[C@@H](CC(C)C)C(N)=O)[C@@H](C)O [DAHGLLKRIKTLL]

- MIC [3]: ≥ 147 µM
- MIC [4]: ≥ 147 µM
Structure (SMILES): CC[C@H](C)[C@H](NC(=O)[C@H](Cc1cnc[nH]1)NC(C)=O)C(=O)N[C@H](C(=O)N[C@@H](CCCCN)C(=O)NCC(=O)N[C@@H](CC(C)C)C(N)=O)[C@@H](C)CC [HIIKGL]
